Several values for one entry are separate records, joined by “and”; a condition that tells them apart may be missing. Equal entries are not always repeated. Where two headings read alike, the source gives them in different places.
Key:
PPAR-α [1] = molecular target: T1, PPAR-α (Mus musculus, UniProt P23204); conditions: dynamic PET 0–60 min post iv injection
PPAR-α [2] = molecular target: T1, PPAR-α; conditions: post-PET
[3] = PPAR-α overexpressing transgenic mice

T1 sequence (P23204 whole entry): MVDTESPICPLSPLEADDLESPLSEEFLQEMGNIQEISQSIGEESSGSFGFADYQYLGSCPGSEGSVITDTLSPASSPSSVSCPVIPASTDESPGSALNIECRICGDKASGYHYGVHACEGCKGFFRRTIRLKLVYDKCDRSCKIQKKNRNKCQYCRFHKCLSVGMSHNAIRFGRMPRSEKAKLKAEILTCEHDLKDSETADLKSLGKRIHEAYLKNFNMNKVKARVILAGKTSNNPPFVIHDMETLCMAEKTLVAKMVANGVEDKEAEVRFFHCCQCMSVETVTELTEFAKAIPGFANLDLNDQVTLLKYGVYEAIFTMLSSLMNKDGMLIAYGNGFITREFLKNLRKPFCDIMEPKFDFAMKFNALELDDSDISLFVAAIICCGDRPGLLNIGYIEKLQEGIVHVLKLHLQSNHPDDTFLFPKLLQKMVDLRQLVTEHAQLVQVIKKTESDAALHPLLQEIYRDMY

CC(C)(Sc1ccc(CCN(CCCCC2CCCCC2)C(=O)Nc2ccc(O[11CH3])cc2)cc1)C(=O)O [[^11C]KSM-01]
Standard uptake value (SUV) (PPAR-α [1]; [3]): 0.68±0.007
Standard uptake value (SUV) (PPAR-α [1]; control (wild-type) mice): 0.37±0.09
Cardiac tissue uptake (PPAR-α [2]; [3]): 1.09 ± 0.246 %ID/g
Blood uptake (PPAR-α [2]; TG (male MHC PPAR-α overexpressing transgenic mice)): 0.42±0.14 %ID/g
Kidney uptake (PPAR-α [2]; TG): 2.58±0.56 %ID/g
Liver uptake (PPAR-α [2]; TG): 55.031 ± 4.926 %ID/g
Lung uptake (PPAR-α [2]; TG): 2.65±0.34 %ID/g
Muscle uptake (PPAR-α [2]; TG): 0.36±0.15 %ID/g
Spleen uptake (PPAR-α [2]; TG): 1.33±0.29 %ID/g
Blood uptake (PPAR-α [2]; WT (wild type mice)): 0.42±0.10 %ID/g
Liver uptake (PPAR-α [2]; WT): 60.699 ± 0.774 %ID/g and 60.69±0.77 %ID/g
Lung uptake (PPAR-α [2]; WT): 2.11±0.31 %ID/g
Muscle uptake (PPAR-α [2]; WT): 0.35±0.18 %ID/g
Spleen uptake (PPAR-α [2]; WT): 1.55±0.14 %ID/g
Cardiac tissue uptake (PPAR-α [2]; wild type littermates): 0.479 ± 0.007 %ID/g

Source: article PMC3477601 (Bioorganic & medicinal chemistry letters, 2012)
